Reference: PubChem BioAssay AID1963825 (Molecular Pharmacology Branch, DTP, NCI, 2024)

Test: Anticancer human tumor 997537-175-T-J1-PDC patient-derived colon adenocarcinoma cell line growth inhibition [POLQ]
Conditions: 997537-175-T-J1-PDC complex spheroid viability, combination with POLQ inhibitors; for IC50: curve of first compound; for viability, T/C: stronger effect = lower value
How it was run: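 PDC + HUVEC + MSC complex spheroids; POLQ inhibitors ± partner drugs; top conc. at/near clinical Cmax, else 10 microM (SN-38 1 microM), half-log dilutions; 37 degrees C, 5% CO2.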

[1] = second compound 0.0316 µM, first compound 0.0316 µM
[2] = second compound 0.0316 µM, first compound 0.1 µM
[3] = second compound 0.0316 µM, first compound 0.316 µM
[4] = second compound 0.0316 µM, first compound 1 µM
[5] = second compound 0.1 µM, first compound 0.0316 µM
[6] = second compound 0.1 µM, first compound 0.1 µM
[7] = second compound 0.1 µM, first compound 0.316 µM
[8] = second compound 0.1 µM, first compound 1 µM
[9] = second compound 0.316 µM, first compound 0.0316 µM
[10] = second compound 0.316 µM, first compound 0.1 µM
[11] = second compound 0.316 µM, first compound 0.316 µM
[12] = second compound 0.316 µM, first compound 1 µM
[13] = second compound 1 µM, first compound 0.0316 µM
[14] = second compound 1 µM, first compound 0.1 µM
[15] = second compound 1 µM, first compound 0.316 µM
[16] = second compound 1 µM, first compound 1 µM
[17] = second compound 3.16 µM, first compound 0.0316 µM
[18] = second compound 3.16 µM, first compound 0.1 µM
[19] = second compound 3.16 µM, first compound 0.316 µM
[20] = second compound 3.16 µM, first compound 1 µM
[21] = second compound 10 µM, first compound 0.0316 µM
[22] = second compound 10 µM, first compound 0.1 µM
[23] = second compound 10 µM, first compound 0.316 µM
[24] = second compound 10 µM, first compound 1 µM
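Also: luminescence signal used as a surrogate for viable cells; spheroids exposed to drugs for seven days before readout.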

CCc1c2c(nc3ccc(O)cc13)-c1cc3c(c(=O)n1C2)COC(=O)[C@]3(O)CC + Nc1ccc(C#CCN(C(=O)Cc2ncc(C(F)(F)F)cc2C(F)(F)F)c2ccc(F)cc2)nn1
IC50 (second compound 0.0316 µM): 24.9 nM
IC50 (second compound 0.1 µM): 15.4 nM
IC50 (second compound 0.316 µM): 29.5 nM
IC50 (second compound 1 µM): 20 nM
IC50 (second compound 3.16 µM): 21.9 nM
IC50 (second compound 10 µM): 16.3 nM
viability, T/C (second compound 0.0316 µM, first compound 0.00316 µM): 89.5%
viability, T/C (second compound 0.0316 µM, first compound 0.01 µM): 91.4%
viability, T/C [1]: 39.2%
viability, T/C [2]: 19%
viability, T/C [3]: 6.65%
viability, T/C [4]: 10.3%
viability, T/C (second compound 0.1 µM, first compound 0.00316 µM): 89.9%
viability, T/C (second compound 0.1 µM, first compound 0.01 µM): 60.1%
viability, T/C [5]: 32.7%
viability, T/C [6]: 20.1%
viability, T/C [7]: 6.93%
viability, T/C [8]: 6.26%
viability, T/C (second compound 0.316 µM, first compound 0.00316 µM): 79.8%
viability, T/C (second compound 0.316 µM, first compound 0.01 µM): 65.1%
viability, T/C [9]: 51.6%
viability, T/C [10]: 19.6%
viability, T/C [11]: 6.57%
viability, T/C [12]: 10.8%
viability, T/C (second compound 1 µM, first compound 0.00316 µM): 83.5%
viability, T/C (second compound 1 µM, first compound 0.01 µM): 70.4%
viability, T/C [13]: 33.9%
viability, T/C [14]: 22.8%
viability, T/C [15]: 5.79%
viability, T/C [16]: 5.67%
viability, T/C (second compound 3.16 µM, first compound 0.00316 µM): 74.1%
viability, T/C (second compound 3.16 µM, first compound 0.01 µM): 66.7%
viability, T/C [17]: 42%
viability, T/C [18]: 16.7%
viability, T/C [19]: 7.19%
viability, T/C [20]: 6.33%
viability, T/C (second compound 10 µM, first compound 0.00316 µM): 76.5%
viability, T/C (second compound 10 µM, first compound 0.01 µM): 65.5%
viability, T/C [21]: 29%
viability, T/C [22]: 17.8%
viability, T/C [23]: 9.23%
viability, T/C [24]: 3.78%

Nc1ccn(C2OC(CO)C(O)C2(F)F)c(=O)n1 (centres undefined) + Nc1ccc(C#CCN(C(=O)Cc2ncc(C(F)(F)F)cc2C(F)(F)F)c2ccc(F)cc2)nn1
IC50 (second compound 0.0316 µM): > 10000 nM
IC50 (second compound 0.1 µM): > 10000 nM
IC50 (second compound 0.316 µM): > 10000 nM
IC50 (second compound 1 µM): > 10000 nM
IC50 (second compound 3.16 µM): > 10000 nM
IC50 (second compound 10 µM): > 10000 nM
viability, T/C [1]: 92.5%
viability, T/C [2]: 100%
viability, T/C [3]: 87.8%
viability, T/C [4]: 89.5%
viability, T/C (second compound 0.0316 µM, first compound 3.16 µM): 80.7%
viability, T/C (second compound 0.0316 µM, first compound 10 µM): 72.5%
viability, T/C [5]: 109%
viability, T/C [6]: 108%
viability, T/C [7]: 101%
viability, T/C [8]: 68.2%
viability, T/C (second compound 0.1 µM, first compound 3.16 µM): 67.9%
viability, T/C (second compound 0.1 µM, first compound 10 µM): 47.3%
viability, T/C [9]: 97.9%
viability, T/C [10]: 102%
viability, T/C [11]: 81.8%
viability, T/C [12]: 92.9%
viability, T/C (second compound 0.316 µM, first compound 3.16 µM): 92%
viability, T/C (second compound 0.316 µM, first compound 10 µM): 66.2%
viability, T/C [13]: 102%
viability, T/C [14]: 99.6%
viability, T/C [15]: 84%
viability, T/C [16]: 74.4%
viability, T/C (second compound 1 µM, first compound 3.16 µM): 88.7%
viability, T/C (second compound 1 µM, first compound 10 µM): 77.5%
viability, T/C [17]: 100%
viability, T/C [18]: 105%
viability, T/C [19]: 84.7%
viability, T/C [20]: 83.8%
viability, T/C (second compound 3.16 µM, first compound 3.16 µM): 70.8%
viability, T/C (second compound 3.16 µM, first compound 10 µM): 84.5%
viability, T/C [21]: 102%
viability, T/C [22]: 113%
viability, T/C [23]: 89%
viability, T/C [24]: 94.1%
viability, T/C (second compound 10 µM, first compound 3.16 µM): 89.7%
viability, T/C (second compound 10 µM, first compound 10 µM): 74.2%
